One may read the melting point as the temperature, or range, at which the solid turns liquid.

Structures can show the parent of a compound that is named as a salt.

With `CCP(=O)(CC)Cc1ccc(NC(=O)/C=C/c2cccc(-c3ccc(C)cc3)c2)cc1` [Compound 187, (E)-N-(4-diethylphosphorylmethylphenyl)-3—(4-methylphenyl)cinnamamide], the melting point lay in the range of 197 to 198 °C.

The compound `Cc1ccc(-c2ccc3c(c2)C=C(C(=O)Nc2ccc(CSCc4ccccc4)cc2)CCO3)cc1` [Compound 86, N-(4—(benzylthiomethyl)phenyl)-7—(4-methylphenyl)-2,3-dihydro-1-benzoxepine-4-carboxamide] registered a melting point of 145 to 146 °C.

The compound `Cc1ccc(-c2ccc3c(c2)C=C(C(=O)Nc2ccc(C[N+]4(C)CCCCC4)cc2)CCO3)cc1` (as salt: chloride) [Compound 97, 1—(N-(7—(4-methylphenyl)-2,3-dihydro-1-benzoxepin-4-carbonyl)-4-aminobenzyl)-1-methylpiperidinium chloride] displayed a melting point of 231 to 232 °C.

As to `Cc1ccc(-c2ccc3c(c2)C=C(C(=O)Nc2ccc(C(O)c4cccc[n+]4[O-])cc2)C(C)O3)cc1` (stereo not drawn) [Compound 203, N-[4-[hydroxy(1-oxidopyridin-2-yl)-methyl]phenyl]-6—(4-methylphenyl)-2-methyl-2H-1-benzopyran-3-carboxamide], the melting point lay in the range of 230 to 232 °C.

Turning to `CCOc1ccc(-c2ccc3c(c2)C=C(C(=O)Nc2ccc(CN(C)C4CCC5(CC4)OCCO5)cc2)CCO3)cc1` [Compound 287, 7-(4-ethoxyphenyl)-N-[4-[N-(4,4-ethylenedioxycyclohexyl)-N-methylaminomethyl]-phenyl]-2,3-dihydro-1-benzoxepine-4-carboxamide], the melting point was in the range of 172 to 174 °C.

In the case of `Cc1ccc(-c2ccc3c(c2)C=C(C(=O)Nc2ccc(-c4ccc[n+]([O-])c4)cc2)CCO3)cc1` [Compound 165, N-[4—(1-oxidopyridin-3-yl)phenyl]-7—(4-methylphenyl)-2,3-dihydro-1-benzoxepine-4-carboxamide], the melting point was 262 °C (dec.).

`Cc1ccc(-c2ccc3c(c2)C=C(C(=O)Nc2ccc(CN4CCCCC4)cc2)CCS3)cc1` [Compound 93, 7—(4-methylphenyl)-N-(4-piperidinomethylphenyl)-2,3-dihydro-1-benzothiepine-4-carboxamide]: the melting point was in the range of 203 to 204 °C.

Take `Cc1ccc(-c2cccc(/C=C/C(=O)Nc3ccc(Cn4ccnc4)cc3)c2)cc1` [Compound 65, (E)-N-[4-[(imidazol-1-yl)methyl]phenyl]-3—(4-methylphenyl)cinnamamide]: the melting point fell in the range of 198 to 200 °C.

Compound `CN(C)c1ccc(-c2ccc3c(c2)C=C(C(=O)Nc2ccc(CP4(=O)CCCCC4)cc2)CCO3)cc1.Cl` returned a melting point of 162 to 163 °C.

As for `Cc1ccc(-c2cccc(/C=C/C(=O)Nc3ccc(CN4CCCC(O)C4)cc3)c2)cc1` (stereo not drawn) [Compound 67, (E)-N-[4—(3-hydroxypiperidino-methyl)phenyl]-3—(4-methylphenyl)cinnamamide], the melting point was in the range of 132 to 134 °C.

Compound `Cc1ccc(-c2cccc(/C=C/C(=O)Nc3ccc(CN4CCCCC4CO)cc3)c2)cc1` (stereo not drawn) [Compound 68, (E)-N-[4-[2—(hydroxy-methyl)piperidinomethyl]phenyl]-3—(4-methylphenyl)cinnamamide] showed a melting point of 137 to 139 °C.

On to `Cc1ccc(-c2ccc3c(c2)C=C(C(=O)Nc2ccc(C[S+]([O-])Cc4ccccc4)cc2)CCO3)cc1` (stereo not drawn) [Compound 109, N-(4—(benzylsulfinylmethyl)phenyl)-7—(4-methylphenyl)-2,3-dihydro-1-benzoxepine-4-carboxamide], for which the melting point was 208 to 209 °C.

As to `Cc1ccc(-c2ccc3c(c2)C=C(C(=O)Nc2ccc(C[N+](C)(C)C4CCOCC4)cc2)CCO3)cc1.[Cl-]`, the melting point is 232 to 237 °C (dec.).

On to `Cc1ccc(-c2ccc3c(c2)C=C(C(=O)Nc2ccc(CN4CCN(c5ncccn5)CC4)cc2)CC3)cc1` [Compound 42, 7—(4-methylphenyl)-N-[4-[1—(2-pyrimidyl)-4-piperazinylmethyl]-phenyl]-3,4-dihydronaphthalene-2-carboxamide], for which the melting point is 203 to 204 °C.

Compound `Cc1ccc(-c2ccc3c(c2)C=C(C(=O)Nc2ccc(CN4CCSCC4)cc2)CC3)cc1` [Compound 50, 7—(4-methylphenyl)-N-[4—(thiomorpholinomethyl)phenyl]-3,4-dihydro-naphthalene-2-carboxamide] registered a melting point of 178 to 180 °C.

The compound `O=C(Nc1ccc(CN2CCCCC2)cc1)C1=Cc2cc(-c3ccc(F)cc3)ccc2CC1` [Compound 15, 7—(4-fluorophenyl)-N-[4—(piperidinomethyl)phenyl]-3,4-dihydronaphthalene-2-carboxamide] had a melting point of 175 to 176 °C.

Turning to `Cc1ccc(-c2cccc(/C=C/C(=O)Nc3ccc(Cc4cccc[n+]4[O-])cc3)c2)cc1` [Compound 191, (E)-N-[4—(1-oxidopyridin-2-ylmethyl)phenyl]-3—(4-methylphenyl)cinnamamide], the melting point fell in the range of 183 to 185 °C.

The compound `CN(Cc1ccc(NC(=O)/C=C/c2ccc(-c3ccc(C(C)(C)C)cc3)s2)cc1)C1CCOCC1` [Compound 276, (E)-3-[5-(4-tert-butylphenyl)thiophen-2-yl]-N-[4-[N-methyl-N-(tetrahydropyran-4-yl)aminomethyl]phenyl]acrylamide] returned a melting point of 216 to 220 °C.

Compound `Cc1ccc(-c2ccc3c(c2)C=C(C(=O)Nc2ccc(C[N+](C)(C)CCCO)cc2)CCO3)cc1.[I-]` [Compound 240, dimethyl-3-hydroxypropyl-(N-(7-(4-methylphenyl)-2,3-dihydro-1-benzoxepin-4-carbonyl)-4-aminobenzyl)ammonium iodide] had a melting point of 216 to 219 °C.

In turn, `CCc1ccc(-c2ccc3c(c2)C=C(C(=O)Nc2ccc(CN(C)C4CCOCC4)cc2)CCO3)cc1` [Compound 177, N-[4-[N-methyl-N-(tetrahydropyran-4-yl)aminomethyl]phenyl]-7—(4-ethylphenyl)-2,3-dihydro-1-benzoxepine-4-carboxamide] yielded a melting point of 181 to 182 °C.

The compound `Cc1ccc(S(=O)(=O)N2CCC(c3cccc4c3CCCC(C(=O)Nc3ccc(CN(C)C5CCOCC5)cc3)=C4)CC2)cc1` [Compound 289, 4-[1-(4-methylphenylsulfonyl)piperidin-4-yl]-N-(4-(N-methyl-N-(tetrahydropyran-4-yl)aminomethyl]phenyl]-6,7-dihydro-5H-benzocycloheptene-8-carboxamide] returned a melting point of 175 to 176 °C.

In turn, `O=C(Nc1ccc(CCN2CCCCC2)cc1)C1=Cc2cc(-c3ccccc3)ccc2CC1` [Compound 9, 7-phenyl-N-[4—(2-piperidinoethyl)phenyl]-3,4-dihydro-naphthalene-2-carboxamide] yielded a melting point of 157 to 159 °C.

For the compound `CN(Cc1ccc(NC(=O)C2=Cc3cc(-c4ccc(N5CCCC5)cc4)ccc3OCC2)cc1)C1CCOCC1` [Compound 150, 7—(4—(pyrrolidin-1-yl)phenyl)-N-(4—((N-tetrahydropyran-4-yl-N-methylamino)-methyl)phenyl)-2,3-dihydro-1-benzoxepine-4-carboxamide], the melting point was in the range of 210 to 211 °C.

Consider `CN1CCCN(C)P1(=O)Cc1ccc(NC(=O)C2=Cc3cc(-c4ccccc4)ccc3CC2)cc1` [Compound 89, 2—(4—(3,4-dihydro-7-phenyl-naphthalene-2-carbonyl-amino)benzyl)-1,3-dimethyl-1,3,2-diazaphosphorinane-2-oxide], for which the melting point was in the range of 249 to 250 °C.

Source of the values: patent US6413947B1, “Anilide derivative, production and use thereof” (Takeda Chemical Industries, Ltd., priority 1997, dated 2002).
